Results: patent US7785849B2, “Cyclic nucleotide-specific phosphodiesterases from Leishmania and uses thereof” (priority 2003, dated 2010)
Read-outs that look alike come from different tables or passages of the source.

Experiments:
LmPDE-B1 = LmPDE-B1 (Leishmania major, UniProt Q6S997); assay: PDE activity assay in yeast lysates, recombinant LmPDE-B1 (3H-cAMP hydrolysis); format: biochemical; details: for IC50: read-out: IC50, inhibition of LmPDE-B1 activity
Protocol: (§1) PP5 yeast cells expressing LmPDE-A, LmPDE-B1, and LmPDE-B2, were lysed as described previously (Zoraghi et al. (2001) J. Biol. Chem. 276, 11559-11566). The cells were grown to mid-log to end-log phase in SC-leu medium, collected, resuspended in the original volume of prewarmed YPD medium, and incubated for an additional 3.5 hours at 30° C. to maximize protein expression. The cells were then harvested, washed twice in H2O, pelleted by centrifugation, and stored overnight at −70° C. The cell pellet was thawed on ice and resuspended in ice-cold extraction buffer (50 mM Hepes pH 7.5, 100 mM NaCl, 1× Complete® protease inhibitor cocktail without EDTA (Roche)). Cells were lysed by grinding with glass beads (0.45-0.50 mm) in 2 ml Sarstedt tubes using a FastPrep FP120 cell disrupter (3×45 seconds at setting 4). The lysed cells were centrifuged and glycerol was added to the resulting supernatant to a final concentration of 15% (v/v). Aliquots were snap-frozen in liquid nitrogen and were stored at −70° C.
PDE activity was determined in 50 mM HEPES, pH 7.5, 0.5 mM EDTA, 10 mM MgCl2, and 50 mg/ml BSA in a final assay volume of 100 μl. Each assay contained 50,000 cpm of ^3H-labeled cAMP, with unlabeled cAMP added to adjust the desired total substrate concentration. […] The standard reaction time was set to 15 minutes, and the amount of enzyme was always chosen so that no more than 15% of the substrate was hydrolyzed. Inhibitor studies were done at a cAMP concentration of 1 μM. Inhibitors were dissolved in DMSO, but the final DMSO concentration in the assays never exceeded 1%. Control reactions with DMSO alone were always included. Reactions were stopped by the addition of 25 μl of 0.5 N HCl. For the subsequent dephosphorylation of the AMP, the stopped reactions were neutralized with 20 μl of 1 M Tris base, followed by the addition of 10 μl of alkaline phosphatase (Roche Diagnostics; 1 unit/10 μl). The dephosphorylation reactions were incubated for 15 minutes at 37° C. and were then applied to 1 ml columns of QAE-Sephadex A25 in 30 mM ammonium formiate, pH 6.0. The ^3H-adenosine formed as a reaction product was eluted with 1.6 ml of 30 mM ammonium formiate, pH 6.0 and was collected into 3.5 ml of water-soluble scintillation fluid (Packard Ultima Flo). Assays were performed in triplicate, and data were analyzed using the Graph Pad Prism software package.

LmPDE-B2 = assay: PDE activity assay in yeast lysates, recombinant LmPDE-B2 (3H-cAMP hydrolysis); format: biochemical, Leishmania major; details: 100 μM inhibitor, 1 μM cAMP
Protocol: as §1
PDE activity was determined in 50 mM HEPES, pH 7.5, 0.5 mM EDTA, 10 mM MgCl2, and 50 mg/ml BSA in a final assay volume of 100 μl. Each assay contained 50,000 cpm of ^3H-labeled cAMP, with unlabeled cAMP added to adjust the desired total substrate concentration. […] Assays were performed in triplicate, and data were analyzed using the Graph Pad Prism software package.

Sequence of LmPDE-B1 (Q6S997 entry or part of it): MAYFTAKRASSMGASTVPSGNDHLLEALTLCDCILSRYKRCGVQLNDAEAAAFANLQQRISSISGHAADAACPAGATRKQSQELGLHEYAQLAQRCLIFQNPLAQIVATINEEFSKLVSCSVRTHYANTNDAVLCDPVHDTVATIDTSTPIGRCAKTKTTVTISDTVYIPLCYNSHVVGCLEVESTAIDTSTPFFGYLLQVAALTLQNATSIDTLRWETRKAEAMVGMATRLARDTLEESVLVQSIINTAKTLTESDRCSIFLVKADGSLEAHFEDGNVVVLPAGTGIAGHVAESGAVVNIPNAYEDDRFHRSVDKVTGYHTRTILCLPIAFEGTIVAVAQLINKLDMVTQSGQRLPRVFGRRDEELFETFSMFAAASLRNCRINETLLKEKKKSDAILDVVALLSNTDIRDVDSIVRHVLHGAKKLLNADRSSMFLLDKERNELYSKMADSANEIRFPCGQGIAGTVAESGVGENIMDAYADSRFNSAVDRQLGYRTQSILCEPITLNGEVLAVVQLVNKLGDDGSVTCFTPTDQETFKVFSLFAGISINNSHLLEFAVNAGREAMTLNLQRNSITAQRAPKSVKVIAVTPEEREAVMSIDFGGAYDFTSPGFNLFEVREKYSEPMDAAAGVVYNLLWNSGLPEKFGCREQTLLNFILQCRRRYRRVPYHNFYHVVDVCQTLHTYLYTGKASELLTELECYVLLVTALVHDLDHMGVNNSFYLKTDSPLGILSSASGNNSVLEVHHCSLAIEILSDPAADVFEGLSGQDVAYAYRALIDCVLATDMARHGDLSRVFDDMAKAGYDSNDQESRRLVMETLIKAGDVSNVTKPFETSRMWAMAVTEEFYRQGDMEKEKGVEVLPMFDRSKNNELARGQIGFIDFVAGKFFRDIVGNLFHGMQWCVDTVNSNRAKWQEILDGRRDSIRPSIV

Nc1nc2c(ncn2[C@@H]2O[C@@H]3COP(=O)(O)O[C@H]3[C@H]2O)c(=O)[nH]1 [cGMP, cyclic guanosine mono-phosphate]
effect on rate of hydrolysis of cAMP by LmPDE-B1 (LmPDE-B1; 100-fold excess of cGMP): did not affect

OCCN(CCO)c1nc(N2CCCCC2)c2nc(N(CCO)CCO)nc(N3CCCCC3)c2n1 [dipyridamole]
sensitivity of LmPDE-B1 activity to PDE inhibitor (LmPDE-B1): partly sensitive | IC50 (LmPDE-B1): 22.6 µM | sensitivity of LmPDE-B2 activity to PDE inhibitor (LmPDE-B2): partly sensitive

COc1cc2c(cc1OC)-c1c/c(=N\c3c(C)cc(C)cc3C)n(C)c(=O)n1CC2 [trequinsin]
IC50 (LmPDE-B1; 1 μM cAMP, yeast lysate): 96.6 µM | sensitivity of LmPDE-B1 activity to PDE inhibitor (LmPDE-B1; 100 μM inhibitor, 1 μM cAMP): partly sensitive | sensitivity of LmPDE-B2 activity to PDE inhibitor (LmPDE-B2): partly sensitive
